Measured values: the supplement of paper PMC10331698
± gives the standard deviation of the averaged measurements.

Key:
Experiment in all cases: level (log10 ratio to DMSO vehicle control); higher = higher biomarker level / cell amount than vehicle control
[1] = compound: C=CC(=O)OCCC(F)(F)C(F)(F)C(F)(F)C(F)(F)C(F)(F)C(F)(F)C(F)(F)C(F)(F)F [8:2 Fluorotelomer acrylate]; conditions: in DMSO
Procedure: (§1)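 BioMAP Diversity Plus panel of 12 human primary cell co-culture systems (3C, 4H, LPS, SAg, BT, BF4T, BE3C, CASM3C, HDF3CGF, KF3CT, MyoF, Mphg). Compounds were added 1 h before stimulation and left for 24 h (MyoF 48 h; BT 72 h for soluble read-outs or 6 d for IgG). Biomarkers were read by ELISA, cytotoxicity by SRB, PBMC viability and proliferation by Alamar Blue. Each well value was divided by the mean of 8 DMSO control wells on the same plate and log10 transformed; duplicate blinded samples were tested at 4 concentrations.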

[2] = compound: FC(F)(I)C(F)(F)C(F)(F)C(F)(F)C(F)(F)C(F)(F)I [1,6-Diiodoperfluorohexane]; conditions: 6700 nM; in DMSO
Procedure: as §1

[3] = compound: O=C(Cl)C(F)(F)C(F)(F)C(F)(F)C(=O)Cl [Hexafluoroglutaryl chloride]; conditions: in DMSO
Procedure: as §1

[4] = compound: OCC(F)(F)C(F)(F)C(F)(F)C(F)(F)C(F)(F)C(F)(F)C(F)(F)C(F)(F)C(F)(F)C(F)(F)C(F)(F)F [11:1 Fluorotelomer alcohol]; conditions: in DMSO
Procedure: as §1

[5] = compound: OCC(F)(F)C(F)(F)C(F)(F)C(F)(F)C(F)(F)C(F)(F)C(F)(F)C(F)(F)CO [1H,1H,10H,10H-Perfluorodecane-1,10-diol]; conditions: in DMSO
Procedure: as §1

[6] = compound: OCCC(F)(F)C(F)(F)C(F)(F)C(F)(F)C(F)(F)C(F)(F)C(F)(F)C(F)(F)F [8:2 Fluorotelomer alcohol]; conditions: 6700 nM; in DMSO
Procedure: as §1

[7] = compound: OCCCC(F)(F)C(F)(F)C(F)(F)C(F)(F)C(F)(F)C(F)(F)C(F)(F)C(F)(F)F [3-(Perfluorooctyl)propanol]; conditions: 6700 nM; in DMSO
Procedure: as §1

[8] = compound: OCCCCC(F)(F)C(F)(F)C(F)(F)C(F)(F)F [4:4 Fluorotelomer alcohol]; conditions: in DMSO
Procedure: as §1

Test System | level (log10) ([1]; 6700 nM) | level (log10) ([1]; 20000 nM) | level (log10) ([1]; 60000 nM) | level (log10) [2] | level (log10) ([3]; 6700 nM) | level (log10) ([3]; 20000 nM) | level (log10) ([3]; 60000 nM) | level (log10) ([4]; 1100 nM) | level (log10) ([4]; 3300 nM) | level (log10) ([4]; 10000 nM) | level (log10) ([5]; 6700 nM) | level (log10) ([5]; 20000 nM) | level (log10) ([5]; 60000 nM) | level (log10) [6] | level (log10) [7] | level (log10) ([8]; 6700 nM) | level (log10) ([8]; 20000 nM) | level (log10) ([8]; 60000 nM)
BT:sIL-17A | 0.0205 ± 0.054 | 0.0765 ± 0.13 | -0.141 ± 0.084 | -0.079 | 0.005 ± 0.098 | -0.049 ± 0.18 | 0.0285 ± 0.13 | 0.329 ± 0.16 | 0.401 ± 0.032 | 0.325 ± 0.06 | -0.0865 ± 0.012 | -0.208 ± 0.24 | -0.729 | -0.034 ± 0.12 | 0.023 ± 0.028 | 0.026 ± 0.12 | -0.003 ± 0.0099 | -0.111 ± 0.061
BF4T:CD90 | -0.0205 ± 0.018 | -0.019 ± 0.0099 | -0.0035 ± 0.021 | -0.059 | 0.0005 ± 0.013 | -0.002 ± 0.018 | -0.0035 ± 0.0035 | 0.0025 ± 0.011 | -0.0025 ± 0.011 | 0.002 ± 0.0042 | -0.051 ± 0.0014 | -0.071 ± 0.0099 | -0.018 | -0.022 ± 0.0099 | -0.0195 ± 0.018 | -0.009 ± 0.013 | -0.0155 ± 0.012 | 0.0005 ± 0.018
4H:CCL2/MCP-1 | -0.025 ± 0.018 | -0.016 ± 0.023 | 0.012 ± 0.051 | -0.03 | -0.022 ± 0.0042 | -0.015 | -0.015 | 0.0335 ± 0.033 | 0.0495 ± 0.00071 | 0.0835 ± 0.023 | -0.0685 ± 0.0064 | -0.105 ± 0.018 | -0.092 | -0.012 ± 0.014 | 0.0195 ± 0.0078 | 0.0135 ± 0.011 | -0.016 ± 0.023 | 0.023 ± 0.055
BT:Secreted IgG | -0.0205 ± 0.012 | -0.041 ± 0.031 | -0.11 ± 0.13 | 0.019 | 0.012 ± 0.024 | 0.0205 ± 0.012 | 0.0115 ± 0.0035 | 0.007 ± 0.025 | 0.0025 ± 0.033 | -0.014 ± 0.054 | -0.0135 ± 0.005 | -0.0415 ± 0.011 | -0.82 | -0.0885 ± 0.088 | 0.009 ± 0.016 | 0.01 ± 0.024 | 0.0045 ± 0.021 | -0.0055 ± 0.037
BF4T:CCL2/MCP-1 | -0.007 ± 0.038 | -0.0265 ± 0.015 | -0.026 ± 0.041 | -0.172 | -0.0225 ± 0.00071 | -0.009 ± 0.0028 | -0.0185 ± 0.005 | 0.018 ± 0.042 | 0.0235 ± 0.021 | 0.031 ± 0.023 | -0.0755 ± 0.05 | -0.273 ± 0.049 | -0.329 | -0.0135 ± 0.0035 | -0.0265 ± 0.0092 | 0.0115 ± 0.044 | 0.007 ± 0.024 | 0.048 ± 0.099
BE3C:CXCL11/I-TAC | -0.019 ± 0.011 | -0.0115 ± 0.013 | 0.003 ± 0.011 | 0.024 | 0.0285 ± 0.015 | 0.0105 ± 0.046 | 0.021 ± 0.031 | -0.0085 ± 0.018 | -0.025 ± 0.024 | -0.005 ± 0.013 | -0.0145 ± 0.0078 | -0.149 ± 0.025 | -0.901 | -0.012 ± 0.0014 | -0.003 ± 0.011 | -0.013 ± 0.0028 | -0.0125 ± 0.00071 | -0.0025 ± 0.015
3C:CXCL8/IL-8 | 0.009 ± 0.0057 | 0.012 ± 0.035 | 0.0555 ± 0.049 | -0.008 | -0.007 ± 0.023 | -0.0075 ± 0.029 | 0.047 ± 0.048 | -0.022 ± 0.027 | -0.0245 ± 0.046 | 0.019 ± 0.082 | -0.013 ± 0.035 | -0.007 ± 0.024 | 0.03 | -0.003 ± 0.034 | -0.008 ± 0.013 | -0.029 ± 0.0085 | -0.031 ± 0.0057 | 0.0005 ± 0.0078
SAg:CD62E/E-Selectin | -0.0125 ± 0.00071 | 0.0205 ± 0.03 | -0.009 ± 0.025 | 0 | -0.018 ± 0.03 | -0.024 ± 0.014 | -0.012 ± 0.0042 | 0.045 ± 0.0057 | 0.0325 ± 0.018 | 0.0355 ± 0.035 | -0.0215 ± 0.005 | -0.015 ± 0.0099 | -0.015 | -0.012 | -0.014 ± 0.0099 | -0.001 ± 0.0014 | -0.01 ± 0.0071 | -0.014 ± 0.028
